Measurements: patent US6544541B1, “Devices and compounds for treating arterial restenosis” (Cardiovascular Solutions, Inc., priority 1999, dated 2003)

Columns and labels:
[1] = tested on: H4IIE hepatoma cells; experiment: RNA synthesis (3H-uridine incorporation) in insulin-stimulated quiescent H4IIE cells; assay type: cell-based; settings: comparison with 3-aminobenzamide; 1 μM insulin, 6 hours; FIG. 1
Description: Incorporation of uridine or thymidine was used to define the change in rate of […] synthesis, respectively, in response to a mitogen such as insulin. Specifically, quiescent H4IIE cells were prepared by placing the cultures (in 24-well dishes) into serum-free a-minimal essential medium for 3 days. It is of note that the normal growth media for H4IIE cells is α-MEM containing 10% fetal bovine serum (FBS). […] Cells were subsequently lysed with detergent and the nucleic acids precipitated with 5% trichloroacetic acid. The precipitated material was collected on glass fibre filters and the radioactive content measured by scintillation counting.

[2] = tested on: H4IIE hepatoma cells; experiment: flow cytometry, bromodeoxyuridine incorporation in proliferating cells; assay type: cell-based; settings: 25 μM MIBG, 48 hours; FIG. 4
Description: Additional verification that MIBG blocked cell proliferation was obtained using flow cytometry analysis. Proliferating H4IIE cells (<40% confluent) were incubated for 48 hours in the presence or absence (untreated control or containing MIBA) of 25 μM MIBG. The cells were pulse labeled with bromodeoxyuridine (BrdU) 2 hours before harvest to label replicating DNA. Cells were released by trypsinization, collected by centrifugation and permeabilized with Triton X-100 (1%). Replicated DNA was labeled with an anti-BrdU antibody conjugated to FITC (fluorescein isothiocyanate), while total DNA was labeled with propidium iodide. The FITC and propidium iodide labels were detected at 514 nm and 600 nm, respectively, with a Coulter flow cytometer™ (excitation wavelength 488 nm), and number of cells containing these fluors were quantified. The data were plotted as cells with propidium iodide versus cells with BrdU. […] To summarize, the results described above indicate that MIBG is a potent inhibitor of cell proliferation. Furthermore, the cellular process affected by MIBG is active throughout the cell cycle. This conclusion is based on the fact that there is no accumulation of cells at a specific phase of the cell cycle. In addition, it is of note that there is no apparent decrease in cell number or an increase in smaller cells, both characteristics of cell death.

[3] = tested on: Friend erythroleukemia cells; experiment: Friend cell differentiation; assay type: cell-based
Excerpt: It is of note however that MIBG acts at a point in the differentiation pathway that is distinct from 3-aminobenzamide.

[4] = tested on: porcine femoral artery; experiment: balloon angioplasty of the porcine femoral artery in vivo; design: species or system pigs; settings: 14 days
Excerpt: To test the effectiveness of MIBG under in vivo conditions, this compound was applied to the femoral artery after balloon angioplasty. This model provided a means of testing both MIBG and the method of application. Specifically, male castrated farm pigs (25-30 kg) were anaesthetized and maintained on isoflurane throughout the procedure. With the pig in a supine position, the left femoral artery was exposed from the bifurcation of the femoral and superficial femoral arteries to the point of insertion of the femoral artery into the groin. A mixture of nitroglycerin and papaverine was applied to the vessel and the area was covered with a saline-soaked sponge to keep the tissues moist. The right femoral artery was also exposed, treated and covered with a sponge. The left femoral was then clamped at both groin insertion (proximal) and bifurcation (distal) points, and an arteriotomy made at the bifurcation. The balloon (6.0×20 mm) was inserted through the arteriotomy in a retrograde manner (i.e. toward the groin) to a position 20 mm from the arteriotomy and the proximal clamp removed. The balloon was inflated for 1 minute, deflated and carefully removed, and the arteriotomy was closed with 6.0 ProleneTM suture. MIBG in combination with a biocompatible glue, in this example, Tisseel®, was applied to the surface of the vessel extending from the arteriotomy to the proximal region past the site of balloon inflation. The fibrin glue ensured that MIBG slowly diffused into the vessel. Furthermore, the fibrin glue helps to retain MIBG at the site for several days. The right femoral was handled as described above. […] The extent of restenosis was subsequently monitored by morphometry. […] Digital images were captured with a DAGE-MTI CCD camera and analyzed with SigmaScan Software. The neointimal and medial areas are quantified and used to calculate the neointimal index: neointimal area/medial area. […] Even though the vehicle cannot be detected after 14 days, we conclude that it remains for the minimum period necessary.

[5] = tested on: MAP kinase; experiment: MAP kinase activity gel after insulin stimulation of H4IIE cells; assay type: cell-based; settings: 50 μM MIBG; 1 μM insulin; 2-20 minutes; FIG. 27
Description: Extracts were prepared at 2, 5, 10 and 20 minutes after insulin addition. MAP kinase activity was measured using an activity gel protocol with myelin basic protein polymerized in the separating gel, as described in Yau and Zahradka, 1997, Mol Cell Biochem 172: 59-66. Scanning densitometry was used to quantify the band intensities. The location of the 42 and 44 kDa MAP kinase bands was confirmed by Western blot analysis.

[6] = tested on: L1210; settings: non-neuronal cell line L1210; cited from earlier work
[7] = tested on: smooth muscle cells derived from human arterial conduits; experiment: DNA synthesis and cytotoxicity in human smooth muscle cells; settings: FIG. 26A

meta-iodobenzylguanidine [MIBG]
inhibition of cell growth as indicated by RNA synthesis in response to insulin [1]: more potent inhibitor of cell growth | bromodeoxyuridine incorporation (DNA synthesis) [2]: no bromodeoxyuridine incorporation is observed | effect on Friend cell differentiation [3]: inhibits Friend cell differentiation following commitment | restenosis after balloon angioplasty ([4]; 25 mM in a 1.0 ml Tisseel bolus applied to vessel surface, FIGS. 20 and 21): effectively prevents restenosis | medial fibrosis or cell loss ([4]; 25 mM in a 1.0 ml Tisseel bolus, FIG. 20): no evidence of medial fibrosis | MAP kinase activation by insulin [5]: does not inhibit MAP kinase activation by insulin | concentration in cells relative to the surrounding medium [6]: 15 times | DNA synthesis and cytotoxicity compared with porcine cells [7]: comparable effects in both porcine and human tissues
